# Test results taken from PubChem BioAssay (NCI).
# Several values for one entry are separate records, joined by “and”; a condition that tells them apart may be missing. Equal entries are not always repeated.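 Interpolation was linear, between the two tested concentrations surrounding the appropriate level; five concentrations were tested over 48 hours in 96-well plates. GI50 marks 50% less growth. TGI: total growth inhibition.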
# What was measured:
# Experiment in all cases: NCI-60 cell line screen, 48 h
# [1] = tested on: MDA-MB-468 breast
# [2] = tested on: SK-MEL-28 melanoma
# [3] = tested on: LOX IMVI melanoma
# [4] = tested on: SNB-75 CNS
# [5] = tested on: HCC-2998 colon
# [6] = tested on: MDA-MB-231 breast
# [7] = tested on: DU-145 prostate
# [8] = tested on: RXF 393 renal
# [9] = tested on: SK-MEL-5 melanoma
# [10] = tested on: HOP-62 NSCLC
# [11] = tested on: NCI-H23 lung
# [12] = tested on: UACC-62 melanoma
# [13] = tested on: NCI-H226 lung
# [14] = tested on: EKVX NSCLC
# [15] = tested on: SK-OV-3 ovarian
# [16] = tested on: BT-549 breast
# [17] = tested on: CCRF-CEM leukemia
# [18] = tested on: IGROV1 ovarian
# [19] = tested on: HOP-92 NSCLC
# [20] = tested on: SF-539 CNS
# [21] = tested on: 786-0 renal
# [22] = tested on: OVCAR-3 ovarian
# [23] = tested on: NCI-H522 lung
# [24] = tested on: MDA-MB-435
# [25] = tested on: CAKI-1 renal
# [26] = tested on: UACC-257 melanoma
# [27] = tested on: OVCAR-8 ovarian
# [28] = tested on: UO-31 renal
# [29] = tested on: NCI/ADR-RES ovarian
# [30] = tested on: SF-268 CNS
# [31] = tested on: OVCAR-4 ovarian
# [32] = tested on: SK-MEL-2 melanoma
# [33] = tested on: KM12 colon
# [34] = tested on: HT29 colon
# [35] = tested on: HS 578T breast
# [36] = tested on: PC-3 prostate
# [37] = tested on: COLO 205 colon
# [38] = tested on: MALME-3M melanoma
# [39] = tested on: OVCAR-5 ovarian
# [40] = tested on: SN12C renal
# [41] = tested on: TK-10 renal
# [42] = tested on: HCT-15 colon
# [43] = tested on: SF-295 CNS
# [44] = tested on: A498 renal
# [45] = tested on: SNB-19 CNS
# [46] = tested on: ACHN renal
# [47] = tested on: HL-60(TB) leukemia
structure (smiles),measurement,setting,value
CN1CCN(c2ccc(NC3=C(Cl)C(=O)c4ncccc4C3=O)cc2C(F)(F)F)CC1,GI50,[1],0.746 µM
same,TGI,[1],2.69 µM
CCOc1ccc2c(-c3ccnc(Nc4cccc(C(F)(F)F)c4)n3)cnn2n1,GI50,[1],1.14 µM
same,TGI,[1],> 25 µM
N#C/C(=C/c1cccs1)c1cccs1,GI50,[1],24.1 µM
same,TGI,[1],> 100 µM
COc1ccc(-n2nc(C)c3c(Nc4ccc(NC(=O)Nc5cc(C(F)(F)F)ccc5F)cc4)ncnc32)cc1,GI50,[1],2.48 µM
same,TGI,[1],6.14 µM
COc1ccc(OC)c(-c2cn3nc(-c4c[nH]c5ccc(Br)cc45)sc3n2)c1,GI50,[1],2.94 µM
same,TGI,[1],8.41 µM
COc1ccc(CNCCCN2C(=O)c3ccc4c5c(ccc(c35)C2=O)C(=O)N(CCCNCCCCNCCCN)C4=O)c(OC)c1OC,GI50,[1],0.155 µM
same,TGI,[1],0.334 µM
CCCCCCCCOC(=O)c1cc(O)c(O)c(O)c1,GI50,[1],3.49 µM
same,TGI,[1],16.7 µM
COc1cccc2c1C(=O)c1c(O)c3c(c(O)c1C2=O)C[C@@](O)(C(=O)COC(=O)c1cccnc1)C[C@@H]3OC1CC(N)C(O)C(C)O1 (stereo partly specified),GI50,[1],0.136 µM
same,TGI,[1],0.465 µM
Cc1cc2cc(Oc3ccnc(Nc4cccc(CS(=O)(=O)NCCN(C)C)c4)n3)ccc2[nH]1,GI50,[1],6.49 µM
same,TGI,[1],21.3 µM
Cn1cc(/C=N/Nc2ccnc3cc(Cl)ccc23)c2ccccc21,GI50,[2],1.7 µM
same,TGI,[2],3.09 µM
same,GI50,[3],0.175 µM
same,TGI,[3],0.323 µM
same,GI50,[4],0.639 µM
same,TGI,[4],2.18 µM
same,GI50,[5],0.669 µM
same,TGI,[5],1.95 µM
same,GI50,[6],0.202 µM
same,TGI,[6],0.488 µM
same,GI50,[7],0.978 µM
same,TGI,[7],2.4 µM
same,GI50,[8],1.53 µM
same,TGI,[8],3 µM
same,GI50,[9],1.45 µM
same,TGI,[9],2.77 µM
same,GI50,[10],1.52 µM
same,TGI,[10],3.13 µM
same,GI50,[11],1.21 µM
same,TGI,[11],2.52 µM
same,GI50,[12],1.54 µM
same,TGI,[12],2.97 µM
same,GI50,[13],1.5 µM
same,TGI,[13],3.25 µM
same,GI50,[14],1.26 µM
same,TGI,[14],2.58 µM
same,GI50,[15],1.39 µM
same,TGI,[15],2.9 µM
same,GI50,[16],1.62 µM
same,TGI,[16],3.11 µM
same,GI50,[17],0.281 µM
same,TGI,[17],0.799 µM
same,GI50,[18],1.41 µM
same,TGI,[18],2.82 µM
same,GI50,[19],1.42 µM
same,TGI,[19],3 µM
same,GI50,[20],0.181 µM
same,TGI,[20],0.342 µM
same,GI50,[21],0.274 µM
same,TGI,[21],0.717 µM
same,GI50,[22],0.206 µM
same,TGI,[22],0.468 µM
same,GI50,[23],1.32 µM
same,TGI,[23],2.75 µM
same,GI50,[24],0.609 µM
same,TGI,[24],1.91 µM
same,GI50,[25],1.3 µM
same,TGI,[25],2.65 µM
same,GI50,[26],1.55 µM
same,TGI,[26],2.97 µM
same,GI50,[27],1.63 µM
same,TGI,[27],3.29 µM
same,GI50,[1],0.239 µM
same,TGI,[1],0.563 µM
same,GI50,[28],1.24 µM
same,TGI,[28],2.52 µM
same,GI50,[29],1.04 µM
same,TGI,[29],2.48 µM
same,GI50,[30],1.72 µM
same,TGI,[30],3.59 µM
same,GI50,[31],0.531 µM
same,TGI,[31],1.2 µM
same,GI50,[32],1.6 µM
same,TGI,[32],3.04 µM
same,GI50,[33],1.65 µM
same,TGI,[33],3.15 µM
same,GI50,[34],0.185 µM
same,TGI,[34],0.338 µM
same,GI50,[35],1.48 µM
same,TGI,[35],3.49 µM
same,GI50,[36],1.15 µM
same,TGI,[36],2.67 µM
same,GI50,[37],1.21 µM
same,TGI,[37],2.66 µM
same,GI50,[38],1.58 µM
same,TGI,[38],3.02 µM
same,GI50,[39],1.68 µM
same,TGI,[39],3.06 µM
same,GI50,[40],1.52 µM
same,TGI,[40],2.92 µM
same,GI50,[41],2.52 µM
same,TGI,[41],4.04 µM
same,GI50,[42],0.293 µM
same,TGI,[42],0.823 µM
same,GI50,[43],1.23 µM
same,TGI,[43],2.53 µM
same,GI50,[44],1.97 µM
same,TGI,[44],3.5 µM
same,GI50,[45],1.05 µM
same,TGI,[45],2.49 µM
same,GI50,[46],1.37 µM
same,TGI,[46],2.67 µM
same,GI50,[47],0.205 µM
same,TGI,[47],0.466 µM
COc1cccc2c1[C@H](OC)[C@]13O[C@@]1(C2=O)[C@H](O)[C@H](C)[C@@](O)(C(=O)[C@@H]1O[C@H]1C)[C@@H]3O,GI50,[1],0.204 µM
same,TGI,[1],0.48 µM
COc1cc(C)c(N(C)C(=O)CN(C)C)cc1Nc1nc(Nc2cccc(F)c2C(N)=O)c2cc[nH]c2n1,GI50,[1],14.5 µM
same,TGI,[1],> 25 µM
CN([N-]C(=O)CC(=O)[N-]N(C)C(=S)c1ccccc1)C(=S)c1ccccc1.[Cu+2],GI50,[1],< 0.01 µM
same,TGI,[1],0.0386 µM
COc1ccccc1NC(=O)N/C(N)=N/c1nc2ccccc2s1,GI50,[1],0.299 µM
same,TGI,[1],> 100 µM
Cc1cc(C)c(S(=O)(=O)Oc2ccccc2[N+](=O)[O-])c(C)c1,GI50,[1],1.48 µM
same,TGI,[1],5.62 µM
CN1CCN(c2ccc3nc(-c4ccc5nc(-c6ccc(C(F)(F)F)cc6)[nH]c5c4)[nH]c3c2)CC1,GI50,[1],1.85 µM
same,TGI,[1],3.65 µM
C[C@]1(O)CC(=O)[C@]2(O)C3=C(C=C[C@]2(O)C1)C(=O)c1c(O)cccc1C3=O,GI50,[1],1.7 µM
same,TGI,[1],3.87 µM
CC(C)NCCCNC1=C(Cl)C(=O)c2ccccc2C1=O,GI50,[1],2.85 µM
same,TGI,[1],8.78 µM
COc1ncnc2c1ncn2C/C(Br)=C(\Br)CCl,GI50,[1],1.56 µM
same,TGI,[1],3.29 µM
CCN(CC)CCNc1ccc(CO)c2sc3ccccc3c(=O)c12,GI50,[1],1.25 µM
same,TGI,[1],3.03 µM
CC(=O)O[C@H]1CC[C@]2(C)[C@H]3C(=O)C=C4[C@@H]5C[C@](C)(C(=O)N6CCCNCC6)CC[C@]5(C)CC[C@@]4(C)[C@]3(C)CC[C@H]2C1(C)C,GI50,[1],1.7 µM
same,TGI,[1],3.56 µM
CC(=O)OC1CC(C)c2c1ncnc2N1CCN(C(=O)OC(C)(C)C)CC1 (stereo unspecified),GI50,[1],33.9 µM
same,TGI,[1],> 100 µM
CC(C)(C)c1ccc(NC(=O)c2cc(=O)c3ccccc3[nH]2)c(C(C)(C)C)c1O,GI50,[1],7.87 µM
same,TGI,[1],21.9 µM
CCCCCCCCCCCCCCCC[N+](C)(C)C,GI50,[1],0.118 µM and 0.328 µM
same,TGI,[1],0.361 µM and 1.93 µM
COc1ccc(S(=O)(=O)N2CCCCC2)cc1NC(=O)c1[nH]c(C)c2c1CCCCC2=O,GI50,[1],0.468 µM
same,TGI,[1],3.9 µM
COc1cc2c(C#N)n3c(c2cc1OC)C(=O)C(c1ccccc1)Oc1ccccc1-3 (stereo unspecified),GI50,[1],4.68 µM
same,TGI,[1],> 100 µM
C=C(C)[C@@H]1CC[C@]2(C)[C@H](CC=C3[C@@H]4CC(C)(C)CC[C@]4(C(=O)OC)CC[C@]32C)[C@@]1(C)CC/C(N)=N/O,GI50,[1],1.85 µM
same,TGI,[1],5.06 µM
CCCCCn1ncc(-c2c(O)c(O)cc3c(O)c(-c4c(C)cc5c(-c6cnn(CCCCC)n6)c(O)c(O)cc5c4O)c(C)cc23)n1,GI50,[1],0.102 µM
same,TGI,[1],3.76 µM
O=c1cc(-c2ccccc2)oc2cc(OCc3cn(Cc4ccc(F)cc4)nn3)cc(O)c12,GI50,[1],20 µM
same,TGI,[1],> 100 µM
Cc1ccc2nc(NC(=O)CSC(=S)N3CCN(Cc4ccccc4)CC3)sc2c1,GI50,[1],> 100 µM
same,TGI,[1],> 100 µM
CCCN(CCC)c1ccc(C=O)c(OC)c1,GI50,[1],6.22 µM
same,TGI,[1],63 µM
CCc1nc2cc(/C=C/C(=O)NO)c(F)cc2c(=O)n1CCc1ccccc1,GI50,[1],0.474 µM
same,TGI,[1],2.92 µM
CCCCn1c(=O)c(/C=C/C(=O)/C=C/c2ccc(O)c(OC)c2)cc2ccc(Cl)cc21,GI50,[1],1.46 µM
same,TGI,[1],4.37 µM
COc1ccc(/C=C2/CCOC2=O)cc1,GI50,[1],> 100 µM
same,TGI,[1],> 100 µM
COc1cc(/C=C\c2cc(/C=C\c3ccc(O)c(OC)c3)n(C(=O)Nc3ccc(C(F)(F)F)cc3)n2)ccc1O,GI50,[1],2.3 µM
same,TGI,[1],6.25 µM
C=C(C)[C@@H]1CC[C@]2(c3ncc(C)o3)CC[C@]3(C)[C@H](CC[C@@H]4[C@@](C)(CCC#N)[C@H](C(=C)C)CC[C@]43C)[C@@H]12,GI50,[1],3 µM
same,TGI,[1],12.9 µM
CCN(CCc1ccc(F)cc1)c1ccc(CO)c(Cl)c1,GI50,[1],0.217 µM
same,TGI,[1],0.724 µM
